One data set concerns the target T1, Human Carboxypeptidase B (Homo sapiens, UniProt P15086).
T1 sequence (P15086 111-417): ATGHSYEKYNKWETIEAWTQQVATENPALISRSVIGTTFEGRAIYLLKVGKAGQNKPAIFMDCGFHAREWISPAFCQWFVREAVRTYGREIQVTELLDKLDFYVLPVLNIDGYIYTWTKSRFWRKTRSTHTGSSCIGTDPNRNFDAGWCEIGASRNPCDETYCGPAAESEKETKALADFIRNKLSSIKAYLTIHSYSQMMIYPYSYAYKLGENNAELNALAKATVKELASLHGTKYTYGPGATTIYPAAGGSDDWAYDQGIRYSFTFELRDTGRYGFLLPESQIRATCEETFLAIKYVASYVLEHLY
Description: Oxidative inactivation of Carboxypeptidase by combinations of metal salts and reducing agents (enzymatic activity). Format: biochemical. Particulars: reducing agent 1 mM, metal salt 5 μM, compared with original activity, in % (unit assumed). As for the experimental part: (§1) Enzyme Activity Assay: The assay of enzymatic activity of each enzyme in the presence of its specific substrate was performed at a particular wavelength by using UV spectrophotometer, and it served as a negative control. The enzyme activity was calculated as: […]
(§2) Enzyme Inhibition Assay: Incubation was performed with inhibitor of each enzyme, which served as a positive control.
(§3) Incubation with metal ion(s) and reducing agent(s): Incubation of enzymes with combination of metal salt(s) and reducing agent(s) in microtitre 96 well plate was done for a specific period of time in presence of substrates to examine their oxidative inactivation. Inactivation of enzyme in presence of metal ion(s) and reducing agent(s) was compared with the original enzyme activity in the presence of substrate as a negative control and in the presence of inhibitor as a positive control.
Assay for Enzymatic Activity of Carboxypeptidase B Using Hippuryl-Arginine
4 units of Carboxypeptidase B in cold deionized water, 1 mm Hippuryl-Arginine solution in 25 mM Iris Buffer solution containing 100 mM Sodium Chloride (pH 7.65) were prepared, separately at about 25° C. 3 ml reaction mixtures (Test and blank) were prepared using above prepared solutions according to Table 9 at 25° C. […]
(§4) For a 200 μl reaction mixture, about 10 μl Carboxypeptidase was incubated in buffer with the combination of metal salts and reducing agents (provided in Table 2 at serial number 1 through 31) at respective concentration at 37° C. in 96 well microtitre plates (Table 3 hereinabove provides details on utilization of a particular combination from those provided at serial number 1 through 31 in Table 2) for 5 min, 15 min and 30 min followed by the addition of respective 90 μl substrate (provided in Table 1A). The enzyme activity was measured spectrophotometrically in a microplate reader, and was compared with original activity assay. The pH was measured by Hanna Combination pH electrode (reaction with enzyme was performed in triplicates). […]

In another data set the target is T2, Porcine Aminopeptidase M (Sus scrofa, UniProt P15145).
T2 sequence (P15145 1-963): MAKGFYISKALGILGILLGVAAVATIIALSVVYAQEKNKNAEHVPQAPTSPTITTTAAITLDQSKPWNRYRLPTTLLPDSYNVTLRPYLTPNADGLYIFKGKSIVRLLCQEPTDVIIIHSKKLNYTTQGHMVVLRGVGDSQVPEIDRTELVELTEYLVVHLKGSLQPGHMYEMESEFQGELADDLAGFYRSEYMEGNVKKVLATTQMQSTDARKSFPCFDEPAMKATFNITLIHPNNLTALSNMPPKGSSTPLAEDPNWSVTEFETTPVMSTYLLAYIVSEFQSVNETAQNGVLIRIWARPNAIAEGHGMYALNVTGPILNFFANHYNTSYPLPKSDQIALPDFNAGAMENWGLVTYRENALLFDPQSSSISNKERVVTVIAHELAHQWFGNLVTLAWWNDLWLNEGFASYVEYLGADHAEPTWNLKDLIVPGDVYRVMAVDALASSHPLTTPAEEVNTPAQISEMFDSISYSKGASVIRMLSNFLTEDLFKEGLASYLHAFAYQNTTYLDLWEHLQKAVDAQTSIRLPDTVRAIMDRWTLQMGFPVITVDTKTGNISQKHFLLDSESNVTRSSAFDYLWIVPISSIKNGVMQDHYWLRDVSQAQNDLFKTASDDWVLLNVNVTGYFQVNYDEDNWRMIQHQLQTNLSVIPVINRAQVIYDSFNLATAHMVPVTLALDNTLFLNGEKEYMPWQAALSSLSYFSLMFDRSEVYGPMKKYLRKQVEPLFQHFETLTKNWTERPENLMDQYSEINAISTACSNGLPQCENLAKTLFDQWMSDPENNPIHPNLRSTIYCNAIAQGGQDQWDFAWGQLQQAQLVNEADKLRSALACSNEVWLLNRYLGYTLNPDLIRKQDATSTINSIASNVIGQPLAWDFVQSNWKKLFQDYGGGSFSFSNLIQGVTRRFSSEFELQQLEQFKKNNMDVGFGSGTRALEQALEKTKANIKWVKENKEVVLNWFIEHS
Description: Oxidative inactivation of Aminopeptidase by combinations of metal salts and reducing agents (enzymatic activity). Format: biochemical. Particulars: compared with original activity, in % (unit assumed). As for the experimental part:
as §1, §2, §3
To Assay the Enzymatic Activity of Aminopeptidase M Using L-Leucine-p-Nitroanilide
1 mM Tricine solution (Prepared in 100 ml deionized water, Reagent A) and 50 mM L-Leucine-p-nitroanilide solution in absolute methanol (Reagent B) were prepared, separately. […] Reagent G, Reagent E and Reagent F were mixed immediately by inversion to prepare test and blank solution as directed in table 12, and the increase in ΔA405 nm was recorded for approximately 5 minutes. ΔA405 nm/minute was obtained using maximum linear rate for both the Test and blank solution. […]
as §4, with “Aminopeptidase” for “Carboxypeptidase”, “assay.” for “assay. The pH was measured by Hanna Combination pH electrode (reaction with enzyme was performed in triplicates).”

For data set [1], the system named is STZ induced diabetic S.D. rats. The experiment in a line: Glucose level in STZ induced diabetic rats after different formulations (Glucometer, % inhibition). In kind it is in vivo. Particulars: glucose by Glucometer. As to the method: (§5) Quantification of Glucose & Insulin Glargine Level in STZ Induced Diabetic Rat Plasma
(§6) Glucose & insulin glargine levels in plasma were quantified after dosing several formulations of insulin glargine to mid-jejunum in STZ induced diabetic S.D. rats.
(§7) Test formulation I: Insulin glargine (Lantus®)—Appearance: Solution for injection in a prefilled pen; Concentration: 100 IU/ml; Storage condition: 2-8° C.; Dose: 0.2 U/kg; Route: SC.
(§8) Test formulation II: Insulin glargine Formulation—MIRA 1 (Reduced glutathione/Chromium Picolinate of Table 15A)+Permeation Enhancer 1 (PA 1 of Table 16A) (oral solution in TRIS buffer)—Dose: 1.7 U/animal; Route: mid-jejunum
(§9) Test formulation III: Insulin glargine Formulation—PA 2 (of Table 16B) and MIRA 2 (Ascorbate Sodium/Vanadium Oxide of Table 15B) (oral solution in TRIS buffer)—Dose: 1.7 U/animal; Route: mid-jejunum.
The clinical signs observed are normal. With respect to sampling time points, during dosing, the blood collection time points was at 0, 20, 40, 60, 120 and 150 minutes post dose. ˜100 μl of blood was collected in a pre-filled Na-EDTA eppendorf, from retro-orbital sinus puncture. Blood was centrifuged at 5000 rpm, 5 min, 4° c. to obtain plasma. Glucose was measured immediately after blood collection using Glucometer.

Data set [2] in a line: Quantification of insulin glargine level in STZ induced diabetic rat plasma (Glargine ELISA), bioavailability. In kind it is in vivo, S.D. rats. Particulars: following subcutaneous and mid-jejunum administration, rats. As for the experimental part: as §5, §6, §7, §8, §9
The clinical signs observed are normal. […] Glucose was measured immediately after blood collection using Glucometer. […]
Principle: This Glargine ELISA is a two-site immunoassay, employing a monoclonal antibody immobilised on microtitre wells and a soluble antibody labelled with horseradish peroxidase (HRP). […] The intensity of the colour developed in each well is quantified in a microtitre plate reader set to record transmitted light at a wavelength of 450 nm (Kit Protocol: Used manufacturer recommended protocol Cat. No. MBS495369) […]
On the technique in general: An ELISA detects its analyte on a solid surface through an enzyme-linked reagent.

As usually defined, the % inhibition is the relative decrease from the control value, in per cent. Read a low % inhibition as little suppression.

In the case of `O=C(/C=C/C=C/c1ccc2c(c1)OCO2)N1CCCCC1` [Piperine], the “Enzymatic activity of Carboxypeptidase” value on Human Carboxypeptidase B (incubation 5 min at 37° C.) is listed as 104.5; on Human Carboxypeptidase B (incubation 15 min at 37° C.), 91.7; at Human Carboxypeptidase B (incubation 30 min at 37° C.) it was 62.26. Besides, the “Enzymatic activity of Aminopeptidase” value at Porcine Aminopeptidase M (Time 5 min incubation at 37° C.) stood at 108; at Porcine Aminopeptidase M (Time 15 min incubation at 37° C.), 100.4; on Porcine Aminopeptidase M (Time 30 min incubation at 37° C.) it was 80.52.

On to Insulin glargine, for which the “% inhibition” value in data set [1] (20 min post dose) is reported as 22.9%; in data set [1] (40 min post dose) it was 25.5%; in data set [1] (60 min post dose) it was 22%; in data set [1] (120 min post dose), 39%; in data set [1] (150 min post dose) it was 17.2%. The clinical signs entry in data set [2] is listed as “normal”. For the same compound, in data set [2], the mortality entry is “no mortality observed”.

(Values after patent publication US12208118B2, “Pharmaceutical compositions for delivery of peptide” (ANYA BIOPHARM INC., priority 2017, dated 2025).)
